Experiment: xn = mol fraction of the nth substance listed
Details: 101 kPa

O + C[N+](C)(CCCS(=O)(=O)O)C1CCCCC1.Cc1ccc(S(=O)(=O)[O-])cc1
x2 = 0
Details | viscosity [mPa·s]
308.15 K | 0.7218
313.15 K | 0.6564
318.15 K | 0.6071
323.15 K | 0.5538
328.15 K | 0.5064

C[N+](C)(CCCS(=O)(=O)O)C1CCCCC1.Cc1ccc(S(=O)(=O)[O-])cc1 + O
viscosity [mPa·s]
Details | 303.15 K | 308.15 K | 313.15 K | 318.15 K | 323.15 K | 328.15 K
x1 = 0.0106 | 1.404 | 1.257 | – | – | 0.9115 | –
x1 = 0.0277 | 2.684 | 2.406 | 2.146 | 1.943 | 1.789 | –
x1 = 0.0603 | 7.903 | – | – | 5.145 | 4.579 | –
x1 = 0.1458 | 78.86 | 62.58 | 48.83 | – | 31.56 | 25.56
x1 = 1 | – | – | 32650 | 17830 | 10187 | 6293

Reference: a compilation of properties of binary mixtures (doi:10.1016/j.molliq.2016.12.089)
